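Results reflect a 48-hour exposure of cells in 96-well plates to compound at five concentrations. At the GI50, growth is halved.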 Active and inactive are the calls of the source. Rule as the data show it: active = GI50 up to about 1.1 µM and inactive = higher.

We go through five molecules from ChEMBL document CHEMBL1201862, “PubChem BioAssay data set” (2004).

Some test systems named below: 786-0; COLO 205; EKVX; HOP-62; HOP-92; IGROV-1; KM12; Malme-3M; NCI-H226; NCI-H522; OVCAR-4; RPMI-8226; SF-539; SK-OV-3; SNB-19; Hs-578T; MCF7; OVCAR-5.
Common to all, as to assay: NCI anticancer screen, dose series, 48 h

As for `COc1ccc(C=O)c(N(C)C(=O)C(C)(C)C)c1`, the GI50 in the test with 786-0, with COLO 205, in the test with EKVX, in the test with HOP-62, with HOP-92 and in the test with IGROV-1 was > 100 µM (inactive) each time. Further, the GI50 with KM12, in the test on Malme-3M, in the test on NCI-H226, in the test on NCI-H522, with OVCAR-4 and in the test on RPMI-8226 was > 100 µM (inactive) each time. The GI50 in the test with SF-539, with SK-OV-3 and with SNB-19 was > 100 µM (inactive) throughout.
`C=C(c1ccccc1N)[C@@]1(O)C[C@H](/C(=C\C)CO)C[C@@H]1NCc1ccccc1`: the GI50 is 20.6 µM (inactive) in the test with 786-0; 16.7 µM (inactive) in the test with COLO 205; 37.1 µM (inactive) in the test with EKVX; 32.7 µM (inactive) in the test on HOP-62; 3.78 µM (inactive) with HOP-92; 31.9 µM (inactive) in the test on IGROV-1. Besides, the GI50 was 18.2 µM (inactive) with KM12; 13.4 µM (inactive) in the test with Malme-3M; 15 µM (inactive) with NCI-H226; 17.1 µM (inactive) in the test with NCI-H522; 26.7 µM (inactive) in the test with OVCAR-4; 19.1 µM (inactive) in the test on RPMI-8226. Further, the GI50 in the test with SF-539 was 16.3 µM (inactive); in the test on SK-OV-3, 21.5 µM (inactive); with SNB-19, 23.2 µM (inactive).
For `O=C(CN1CCOCC1)c1ccc2c(c1)oc(=O)n2CCN1CCCC1`, the GI50 with 786-0, with COLO 205, in the test with EKVX, in the test with HOP-62, in the test on Hs-578T and in the test with IGROV-1 was > 100 µM (inactive) each time. Further, the GI50 with KM12, in the test with MCF7, in the test with Malme-3M, in the test with NCI-H226, in the test with OVCAR-5 and in the test with RPMI-8226 was > 100 µM (inactive) each time. Also, the GI50 with SF-539, in the test on SK-OV-3 and in the test with SNB-19 was > 100 µM (inactive) throughout.
As to `CCOC(=O)N/N=C(\Cc1ccc([N+](=O)[O-])cc1)OCC`, the GI50 in the test with 786-0, in the test on COLO 205, in the test on EKVX, in the test on HOP-62, in the test on HOP-92 and in the test with IGROV-1 was > 100 µM (inactive) each time. Further, the GI50 with KM12, with MCF7, in the test with NCI-H522, in the test on OVCAR-4, in the test with OVCAR-5 and in the test on RPMI-8226 was > 100 µM (inactive) in each case. For the same molecule, the GI50 with SF-539, with SK-OV-3 and in the test on SNB-19 was > 100 µM (inactive) each time.
Take `O=S(=O)(/C=C/C(=C/c1ccccc1)S(=O)(=O)c1ccccc1)c1ccccc1`: the GI50 in the test with 786-0 was 1.77 µM (inactive); with COLO 205 it was 2.16 µM (inactive); in the test on EKVX, 1.77 µM (inactive); with HOP-62 it was 1.94 µM (inactive); with IGROV-1 it was 4.06 µM (inactive); in the test on KM12 it was 2.16 µM (inactive). Moreover, the GI50 is 1.81 µM (inactive) in the test on Malme-3M; 1.45 µM (inactive) in the test with NCI-H522; 1.67 µM (inactive) in the test with OVCAR-4; 0.61 µM (active) with RPMI-8226; 1.77 µM (inactive) with SF-539; 1.44 µM (inactive) in the test with SK-OV-3. Further, the GI50 with SNB-19 is 1.78 µM (inactive).
